pEC50, pIC50, pKi: −log10 of the molar value.
How the values were obtained:
[1] = target: D(2) dopamine receptor (Homo sapiens, UniProt P14416)
Description: Binding affinity to dopamine D2 receptor (unknown origin)

[2] = target: 5-hydroxytryptamine receptor 2A (Homo sapiens, UniProt P28223)
Description: Binding affinity to 5HT2A receptor (unknown origin)

[3] = system: Mus musculus; assay: Effect on spontaneous exploratory locomotor activity in orally dosed NMRI mouse measured for 30 mins with activity counts each 5 mins; assay type: ADME, organism-based; conditions: in vivo, po, 0.5 h
[4] = system: Mus musculus; assay: Antipsychotic-like activity in orally dosed NMRI mouse assessed as reduction in MK801-induced locomotor activity dosed 15 to 30 mins before administration of MK801 measured for 60 mins; assay type: functional; conditions: po, read-out: MED
[5] = target: T1, Adrenergic receptor alpha-1 (Homo sapiens, UniProt P35348+P25100+P35368); assay: Binding affinity to alpha1 adrenoreceptor (unknown origin)
T1 sequence (P35348 whole entry): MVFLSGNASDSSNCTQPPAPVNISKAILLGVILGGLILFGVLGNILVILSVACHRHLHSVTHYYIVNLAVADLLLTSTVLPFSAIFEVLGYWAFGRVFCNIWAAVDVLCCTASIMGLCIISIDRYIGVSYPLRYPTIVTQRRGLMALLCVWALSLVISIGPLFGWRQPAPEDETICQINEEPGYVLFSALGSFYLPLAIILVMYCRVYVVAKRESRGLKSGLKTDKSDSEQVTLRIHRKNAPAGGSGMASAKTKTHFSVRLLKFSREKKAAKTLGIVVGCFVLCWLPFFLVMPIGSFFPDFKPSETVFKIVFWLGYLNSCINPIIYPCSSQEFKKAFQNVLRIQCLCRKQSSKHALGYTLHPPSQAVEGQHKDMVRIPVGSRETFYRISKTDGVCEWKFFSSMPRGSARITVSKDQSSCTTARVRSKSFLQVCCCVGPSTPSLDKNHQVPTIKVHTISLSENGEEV
T1 sequence (P25100 whole entry): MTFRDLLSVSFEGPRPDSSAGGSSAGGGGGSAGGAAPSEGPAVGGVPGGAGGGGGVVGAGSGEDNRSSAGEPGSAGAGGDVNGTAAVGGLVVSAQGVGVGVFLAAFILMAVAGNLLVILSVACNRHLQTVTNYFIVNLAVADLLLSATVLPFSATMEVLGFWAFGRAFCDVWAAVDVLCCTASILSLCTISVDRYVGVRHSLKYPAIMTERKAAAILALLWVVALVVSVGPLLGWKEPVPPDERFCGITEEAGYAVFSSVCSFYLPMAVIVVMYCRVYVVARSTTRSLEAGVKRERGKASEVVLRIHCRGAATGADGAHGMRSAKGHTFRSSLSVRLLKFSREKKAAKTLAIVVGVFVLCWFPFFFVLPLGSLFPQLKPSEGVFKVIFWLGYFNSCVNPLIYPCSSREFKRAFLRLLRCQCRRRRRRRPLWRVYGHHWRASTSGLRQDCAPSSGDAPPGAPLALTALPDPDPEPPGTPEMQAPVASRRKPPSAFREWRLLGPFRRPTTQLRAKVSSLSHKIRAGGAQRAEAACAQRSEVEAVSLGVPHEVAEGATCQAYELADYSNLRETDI
T1 sequence (P35368 whole entry): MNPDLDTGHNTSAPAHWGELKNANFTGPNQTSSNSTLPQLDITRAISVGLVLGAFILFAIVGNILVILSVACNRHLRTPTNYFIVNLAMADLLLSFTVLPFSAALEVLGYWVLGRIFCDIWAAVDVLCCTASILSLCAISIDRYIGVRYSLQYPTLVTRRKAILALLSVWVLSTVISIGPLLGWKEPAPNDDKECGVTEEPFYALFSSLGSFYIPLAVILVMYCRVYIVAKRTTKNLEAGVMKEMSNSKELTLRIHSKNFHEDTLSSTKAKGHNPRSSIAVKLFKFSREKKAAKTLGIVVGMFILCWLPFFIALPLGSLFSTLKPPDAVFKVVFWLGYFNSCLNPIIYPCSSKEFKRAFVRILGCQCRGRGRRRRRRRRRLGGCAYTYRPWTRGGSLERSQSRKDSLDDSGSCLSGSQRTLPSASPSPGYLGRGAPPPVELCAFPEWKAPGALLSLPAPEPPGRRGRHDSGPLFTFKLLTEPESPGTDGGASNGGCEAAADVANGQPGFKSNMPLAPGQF

[6] = target: Histamine H1 receptor (Homo sapiens, UniProt P35367); assay: Binding affinity to human histamine H1 receptor
Sequence of Histamine H1 receptor (P35367 whole entry): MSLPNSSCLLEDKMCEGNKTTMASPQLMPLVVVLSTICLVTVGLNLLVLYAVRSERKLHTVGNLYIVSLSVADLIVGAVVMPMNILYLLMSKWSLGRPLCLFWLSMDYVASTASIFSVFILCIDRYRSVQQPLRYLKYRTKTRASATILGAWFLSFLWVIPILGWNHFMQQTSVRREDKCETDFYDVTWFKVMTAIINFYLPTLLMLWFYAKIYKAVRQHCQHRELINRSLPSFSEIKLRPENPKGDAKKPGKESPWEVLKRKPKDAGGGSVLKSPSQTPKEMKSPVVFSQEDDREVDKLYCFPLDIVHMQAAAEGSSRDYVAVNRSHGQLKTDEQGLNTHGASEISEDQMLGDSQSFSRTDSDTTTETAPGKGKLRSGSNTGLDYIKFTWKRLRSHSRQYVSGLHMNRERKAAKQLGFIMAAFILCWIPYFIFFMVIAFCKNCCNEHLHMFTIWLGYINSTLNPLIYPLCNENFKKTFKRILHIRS

[7] = target: T2, D(3) dopamine receptor (Homo sapiens, UniProt P35462); assay: Antagonist activity at human dopamine D3 receptor expressed in CHO-K1 cells assessed as reduction in dopamine-induced response by [35S]GTPgammaS binding assay; assay type: functional, cell-based
T2 sequence (P35462 whole entry): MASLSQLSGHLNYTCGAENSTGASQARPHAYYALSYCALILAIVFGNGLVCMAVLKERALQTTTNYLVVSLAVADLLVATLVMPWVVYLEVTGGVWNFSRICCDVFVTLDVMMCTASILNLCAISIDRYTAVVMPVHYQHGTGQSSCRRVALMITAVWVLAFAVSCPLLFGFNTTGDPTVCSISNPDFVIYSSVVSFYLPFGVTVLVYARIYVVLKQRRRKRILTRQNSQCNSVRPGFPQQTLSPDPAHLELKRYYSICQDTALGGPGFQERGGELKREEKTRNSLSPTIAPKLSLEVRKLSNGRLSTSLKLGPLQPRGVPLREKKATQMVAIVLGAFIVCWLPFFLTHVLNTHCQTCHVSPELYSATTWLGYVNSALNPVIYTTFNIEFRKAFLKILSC

[8] = target: T3, 5-hydroxytryptamine receptor 1A (Homo sapiens, UniProt P08908); assay: Agonist activity at human 5HT1A receptor (unknown origin) expressed in CHO cells by [35S]GTPgammaS binding assay; assay type: functional, cell-based
T3 sequence (P08908 whole entry): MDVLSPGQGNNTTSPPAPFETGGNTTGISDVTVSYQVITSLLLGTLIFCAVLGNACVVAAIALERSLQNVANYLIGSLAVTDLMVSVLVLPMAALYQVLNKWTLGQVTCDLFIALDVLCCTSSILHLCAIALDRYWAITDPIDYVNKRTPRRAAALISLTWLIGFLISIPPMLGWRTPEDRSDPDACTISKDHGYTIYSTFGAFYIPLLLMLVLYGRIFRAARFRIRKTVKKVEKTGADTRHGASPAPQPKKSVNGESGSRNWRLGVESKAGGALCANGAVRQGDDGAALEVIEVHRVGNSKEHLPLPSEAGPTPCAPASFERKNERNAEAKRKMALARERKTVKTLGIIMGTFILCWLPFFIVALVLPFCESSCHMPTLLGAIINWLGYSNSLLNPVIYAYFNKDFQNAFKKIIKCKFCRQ

[9] = target: 5-hydroxytryptamine receptor 2A (Rattus norvegicus, UniProt P14842); assay: Antagonist activity at 5HT2A receptor in rat aortic rings assessed as reduction in 5-HT-induced contraction
Sequence of 5-hydroxytryptamine receptor 2A (Rattus norvegicus, UniProt P14842) (P14842 whole entry): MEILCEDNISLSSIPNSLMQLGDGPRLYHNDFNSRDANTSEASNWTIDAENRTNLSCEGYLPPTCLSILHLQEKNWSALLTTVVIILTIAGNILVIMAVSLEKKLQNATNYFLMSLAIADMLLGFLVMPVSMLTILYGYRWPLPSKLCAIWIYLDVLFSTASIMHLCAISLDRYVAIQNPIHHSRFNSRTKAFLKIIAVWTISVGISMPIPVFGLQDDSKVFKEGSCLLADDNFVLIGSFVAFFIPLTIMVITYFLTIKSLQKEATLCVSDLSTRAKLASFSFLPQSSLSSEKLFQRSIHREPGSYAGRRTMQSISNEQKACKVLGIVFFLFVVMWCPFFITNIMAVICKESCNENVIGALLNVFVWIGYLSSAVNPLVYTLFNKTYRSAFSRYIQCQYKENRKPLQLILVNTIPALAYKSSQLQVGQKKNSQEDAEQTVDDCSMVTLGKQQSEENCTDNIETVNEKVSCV

[10] = target: Voltage-gated inwardly rectifying potassium channel KCNH2 (Homo sapiens, UniProt Q12809); assay: Inhibition of human ERG by whole cell based electrophysiology assay
Sequence of Voltage-gated inwardly rectifying potassium channel KCNH2 (Q12809 whole entry, the tested form may be a part): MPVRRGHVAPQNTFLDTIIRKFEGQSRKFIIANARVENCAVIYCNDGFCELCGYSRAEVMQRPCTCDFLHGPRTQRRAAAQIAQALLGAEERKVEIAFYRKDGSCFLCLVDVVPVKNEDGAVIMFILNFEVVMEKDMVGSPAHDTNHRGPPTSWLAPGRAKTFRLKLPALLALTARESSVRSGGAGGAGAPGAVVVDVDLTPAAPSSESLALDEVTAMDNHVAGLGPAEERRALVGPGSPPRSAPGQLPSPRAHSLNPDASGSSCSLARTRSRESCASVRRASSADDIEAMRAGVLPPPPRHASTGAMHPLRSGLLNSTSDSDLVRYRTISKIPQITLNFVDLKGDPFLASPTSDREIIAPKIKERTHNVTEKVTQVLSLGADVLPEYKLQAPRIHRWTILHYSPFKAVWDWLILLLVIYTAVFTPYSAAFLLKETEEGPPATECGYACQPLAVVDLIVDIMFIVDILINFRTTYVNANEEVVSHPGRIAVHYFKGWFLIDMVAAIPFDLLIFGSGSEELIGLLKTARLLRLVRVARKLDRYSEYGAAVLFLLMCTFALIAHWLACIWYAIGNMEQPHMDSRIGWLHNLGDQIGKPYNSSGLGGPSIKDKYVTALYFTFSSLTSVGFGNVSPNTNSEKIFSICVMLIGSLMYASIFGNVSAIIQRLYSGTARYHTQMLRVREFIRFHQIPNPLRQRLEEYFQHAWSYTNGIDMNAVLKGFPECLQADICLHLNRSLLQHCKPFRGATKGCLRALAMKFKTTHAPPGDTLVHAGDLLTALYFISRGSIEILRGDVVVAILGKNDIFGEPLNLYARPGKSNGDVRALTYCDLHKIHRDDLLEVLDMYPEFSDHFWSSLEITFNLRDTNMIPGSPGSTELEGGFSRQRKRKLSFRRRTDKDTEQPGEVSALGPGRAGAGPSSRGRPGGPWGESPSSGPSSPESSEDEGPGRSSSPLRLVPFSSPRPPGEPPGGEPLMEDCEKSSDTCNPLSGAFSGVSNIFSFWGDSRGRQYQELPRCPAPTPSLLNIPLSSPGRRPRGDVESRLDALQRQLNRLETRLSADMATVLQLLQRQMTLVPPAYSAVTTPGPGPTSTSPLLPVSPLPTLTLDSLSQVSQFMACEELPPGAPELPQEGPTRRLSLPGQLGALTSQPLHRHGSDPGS

[11] = system: Heart; assay: Cardiotoxicity in Langendorff-perfused Sprague-Dawley rat heart assessed as effect on coronary perfusion pressure up to 10 uM; assay type: toxicity, tissue-based
[12] = system: Mus musculus; assay: Toxicity in mouse assessed as induction of memory impairment by measuring […] to enter dark compartment at 60 mg/kg, po administered 30 mins before training by passive avoidance test; assay type: organism-based; set-up: dose 60 mg/kg, route oral; conditions: in vivo, 0.5 h
[13] = system: Mus musculus; assay: Toxicity in mouse assessed as induction of memory impairment by measuring […] to enter dark compartment at 60 mg/kg, po administered 30 mins before training measured 24 hrs after acquisition trail by passive avoidance test; assay type: organism-based; set-up: dose 60 mg/kg, route oral; conditions: in vivo
[14] = system: Mus musculus; assay: Effect on startle response in mouse at 3 to 30 mg/kg, po; assay type: ADME, organism-based; set-up: dose 3-30 mg/kg, route oral; conditions: in vivo
[15] = system: Mus musculus; assay: Effect on spontaneous locomotor activity in mouse at 30 mg/kg, ip; assay type: ADME, organism-based; set-up: dose 30 mg/kg, route intraperitoneal; conditions: in vivo
[16] = target: T2, D(3) dopamine receptor
Description: Binding affinity to dopamine D3 receptor (unknown origin)

Sequence of 5-hydroxytryptamine receptor 2A (Homo sapiens, UniProt P28223) (P28223 whole entry): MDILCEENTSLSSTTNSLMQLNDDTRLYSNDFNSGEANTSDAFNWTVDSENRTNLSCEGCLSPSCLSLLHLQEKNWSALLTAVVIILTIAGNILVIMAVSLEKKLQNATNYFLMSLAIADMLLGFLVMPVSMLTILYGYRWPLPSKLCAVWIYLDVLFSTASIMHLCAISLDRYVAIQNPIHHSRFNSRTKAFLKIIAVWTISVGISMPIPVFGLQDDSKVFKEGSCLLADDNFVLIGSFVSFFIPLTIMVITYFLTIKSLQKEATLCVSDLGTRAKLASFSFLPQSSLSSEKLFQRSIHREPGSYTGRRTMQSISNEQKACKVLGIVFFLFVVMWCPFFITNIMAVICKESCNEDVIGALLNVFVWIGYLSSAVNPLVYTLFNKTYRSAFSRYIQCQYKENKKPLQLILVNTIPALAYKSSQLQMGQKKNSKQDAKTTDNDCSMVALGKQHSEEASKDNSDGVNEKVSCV
Sequence of D(2) dopamine receptor (P14416 whole entry): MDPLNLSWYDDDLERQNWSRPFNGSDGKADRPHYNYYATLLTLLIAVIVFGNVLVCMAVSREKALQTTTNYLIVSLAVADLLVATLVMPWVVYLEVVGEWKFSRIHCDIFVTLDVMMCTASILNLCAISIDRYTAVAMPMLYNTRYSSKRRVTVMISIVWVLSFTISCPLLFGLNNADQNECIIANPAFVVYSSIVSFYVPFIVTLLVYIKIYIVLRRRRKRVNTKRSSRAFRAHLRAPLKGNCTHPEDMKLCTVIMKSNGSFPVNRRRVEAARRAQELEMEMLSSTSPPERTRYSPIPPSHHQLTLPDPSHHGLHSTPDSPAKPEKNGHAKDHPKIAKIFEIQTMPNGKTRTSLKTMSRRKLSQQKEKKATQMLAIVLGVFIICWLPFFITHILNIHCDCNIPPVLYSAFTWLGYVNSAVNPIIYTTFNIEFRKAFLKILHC

O=C(NCCCCN1CCN(c2ccccc2)CC1)c1ccc2ncccc2c1
pKi [1]: < 6.00 | pKi [2]: 7.18 | MED [3]: <= 3 mg kg-1 | minimal effective dose [4]: 10 mg/kg | Ki [5]: 50 nM | pKi [6]: 6.96 | pIC50 [7]: 6.59 | pEC50 [8]: 5.74 | pIC50 [9]: 5.59 | pIC50 [10]: 5.00 | Activity [11]: Non-toxic | Activity [12]: Toxic | Activity [13]: Non-toxic | Activity [14]: Non-toxic | Activity [15]: Toxic | pKi [16]: 9.22
